In paper PMC7065195 (2020):

What was measured:
[1] = system: poly A–poly U (poly rA–poly rU, AU-RNA) (RNA, polymer) A/U; assay: UV thermal melting at 260 nm; settings: Na+ (sodium cacodylate, I=0.05 M); pH 7.0; ratio r=[compound]/[polynucleotide]=0.1; per base
[2] = system: poly dAdT–poly dAdT (poly(dA-dT)2, AT-DNA) (DNA, polymer) AT; assay: UV thermal melting at 260 nm; settings: Na+ (sodium cacodylate, I=0.05 M); pH 7.0; ratio r=[compound]/[polynucleotide]=0.1; per base

ΔTm [1]: +9.5 ± 0.5 °C
ΔTm [2]: +10.0 ± 0.5 °C
SMILES: Cc1cc(-c2ccc(-c3ccc(-c4cc(C)c(B(c5c(C)cc([N+](C)(C)C)cc5C)c5c(C)cc([N+](C)(C)C)cc5C)c(C)c4)s3)s2)cc(C)c1B(c1c(C)cc([N+](C)(C)C)cc1C)c1c(C)cc([N+](C)(C)C)cc1C
